Assay [1] deals with T1, SIRT1 (Homo sapiens, UniProt Q96EB6).
T1 sequence (Q96EB6 1-747): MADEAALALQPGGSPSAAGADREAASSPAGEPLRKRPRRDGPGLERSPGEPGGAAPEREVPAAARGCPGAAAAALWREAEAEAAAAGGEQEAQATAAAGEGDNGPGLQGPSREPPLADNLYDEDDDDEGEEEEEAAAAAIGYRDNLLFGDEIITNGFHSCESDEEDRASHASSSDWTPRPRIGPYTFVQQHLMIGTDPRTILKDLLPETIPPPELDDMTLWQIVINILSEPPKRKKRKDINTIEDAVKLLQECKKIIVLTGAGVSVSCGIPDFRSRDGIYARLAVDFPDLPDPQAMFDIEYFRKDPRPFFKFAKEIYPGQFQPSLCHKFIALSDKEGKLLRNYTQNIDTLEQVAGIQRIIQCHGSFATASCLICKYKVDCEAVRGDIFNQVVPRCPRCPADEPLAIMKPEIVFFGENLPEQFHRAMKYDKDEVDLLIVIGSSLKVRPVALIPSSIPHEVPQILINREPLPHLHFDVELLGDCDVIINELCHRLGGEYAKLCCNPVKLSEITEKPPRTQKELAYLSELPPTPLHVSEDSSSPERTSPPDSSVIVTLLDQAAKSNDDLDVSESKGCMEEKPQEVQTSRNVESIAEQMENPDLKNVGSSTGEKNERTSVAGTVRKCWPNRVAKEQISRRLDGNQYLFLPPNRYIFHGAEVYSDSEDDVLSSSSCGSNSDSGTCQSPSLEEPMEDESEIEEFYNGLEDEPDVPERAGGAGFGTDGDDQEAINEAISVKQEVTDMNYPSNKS
The experiment in a line: TAMRA based mass spectrometry assay of SIRT1 activity. The class given is biochemical. The following applies: TAMRA peptide substrate; for TAMRA EC1.5 (μM): concentration of test compound giving 150% activation of SIRT1; for Emax: percent maximum fold activation of SIRT1, read-out: TAMRA % Fold Act. In a few lines: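 Recombinant N-terminal His-tagged human SIRT1 (10 nM, E. coli) incubated 25 min at 25 °C with 0.5 μM 5TMR-labelled p53-derived acetyl-peptide and 120 μM βNAD+ in Tris-acetate pH 8 buffer with DTT and 0.05% BSA, compound at varying concentrations. Stopped with formic acid; deacetylated peptide or OAADPR measured by mass spectrometry relative to DMSO controls.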

Assay [2] has as its target T1, SIRT1. The experiment in a line: Trp mass spectrometry assay of SIRT1 activity. The class given is biochemical. The following applies: Trp peptide substrate; for Trp EC1.5 (μM): concentration of test compound giving 150% activation of SIRT1; for Emax: percent maximum fold activation of SIRT1, read-out: Trp % Fold Act. In a few lines:
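His-tagged SIRT1 expressed in E. coli BL21(DE3), 10 nM, incubated 25 min at 25° C. with 0.5 μM Ac-RHKK(Ac)W-NH2 peptide and 120 μM βNAD+ in 50 mM HEPES pH 7.5, […], 1 mM DTT, 0.05% BSA; formic acid stop. OAADPR or deacetylated peptide measured by mass spectrometry; EC1.5 and percent maximum activation versus DMSO control.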

The source of these data is patent US9957271B2, “Substituted bicyclic aza-heterocycles and analogues as sirtuin modulators” (GlaxoSmithKline, LLC, priority 2012, dated 2018).

Consider `Cc1cccc(NC(=O)c2cnc3ccc(-c4ccccc4C(F)(F)F)nn23)n1` [Compound 78], for which, in assay [1], the “TAMRA EC1.5 (μM)” value is recorded as “A (EC1.5<1 μM)” and the Emax was at least 350%. In assay [2], the “Trp EC1.5 (μM)” value is “A (EC1.5<1 μM)” and the Emax was at least 350%.
As to `O=C(Nc1ccncn1)c1cnc2ccc(-c3ccccc3C(F)(F)F)nn12` [Compound 80], in assay [1], the “TAMRA EC1.5 (μM)” value is “B (EC1.5 1-25 μM)” and the Emax is at least 350%. Moreover, in assay [2], the “Trp EC1.5 (μM)” value is given as “C (EC1.5>25 μM)” and the Emax was under 350%.
As for `O=C(Nc1cnc2ccc(-c3ccccc3C(F)(F)F)nn12)c1cccc(OCC(O)CO)n1` (centres unmarked) [Compound 83], in assay [1], the “TAMRA EC1.5 (μM)” value is “A (EC1.5<1 μM)” and the Emax was at least 350%. Further, in assay [2], the “Trp EC1.5 (μM)” value is “A (EC1.5<1 μM)” and the Emax was at least 350%.
In the case of `O=C(Nc1ncccn1)c1cnc2ccc(-c3ccccc3C(F)(F)F)nn12` [Compound 84], in assay [1], the “TAMRA EC1.5 (μM)” value is “B (EC1.5 1-25 μM)” and the Emax is at least 350%. In assay [2], the “Trp EC1.5 (μM)” value is “B (EC1.5 1-25 μM)” and the Emax is at least 350%.
Turning to `O=C(Nc1cnc2ccc(-c3ccccc3C(F)(F)F)nn12)c1cccnc1` [Compound 86], in assay [1], the “TAMRA EC1.5 (μM)” value is given as “C (EC1.5>25 μM)” and the Emax was under 350%. Moreover, in assay [2], the “Trp EC1.5 (μM)” value is “C (EC1.5>25 μM)” and the Emax is under 350%.
For `Cn1cnc(C(=O)Nc2cnc3ccc(-c4ccccc4C(F)(F)F)nn23)c1` [Compound 92], in assay [1], the “TAMRA EC1.5 (μM)” value is listed as “B (EC1.5 1-25 μM)” and the Emax is at least 350%. For the same molecule, in assay [2], the “Trp EC1.5 (μM)” value is given as “C (EC1.5>25 μM)” and the Emax is under 350%.
As for `Cn1nccc1C(=O)Nc1cnc2ccc(-c3ccccc3C(F)(F)F)nn12` [Compound 93], in assay [1], the “TAMRA EC1.5 (μM)” value is given as “C (EC1.5>25 μM)” and the Emax is under 350%. In addition, in assay [2], the “Trp EC1.5 (μM)” value was “C (EC1.5>25 μM)” and the Emax was under 350%.
Consider `O=C(Nc1cccc(N2CCOCC2)n1)c1cnc2ccc(-c3ccccc3Cl)nn12` [Compound 95], for which, in assay [1], the “TAMRA EC1.5 (μM)” value is recorded as “A (EC1.5<1 μM)” and the Emax is at least 350%. Further, in assay [2], the “Trp EC1.5 (μM)” value is on record as “A (EC1.5<1 μM)” and the Emax was under 350%.
As to `Cc1ccc(NC(=O)c2cnc3ccc(-c4ccccc4C(F)(F)F)nn23)cn1` [Compound 98], in assay [1], the “TAMRA EC1.5 (μM)” value is given as “B (EC1.5 1-25 μM)” and the Emax is at least 350%. In assay [2], the “Trp EC1.5 (μM)” value was “B (EC1.5 1-25 μM)” and the Emax was at least 350%.
On to `Cc1cc(C)nc(NC(=O)c2cnc3ccc(-c4ccccc4C(F)(F)F)nn23)c1` [Compound 101], for which, in assay [1], the “TAMRA EC1.5 (μM)” value is “A (EC1.5<1 μM)” and the Emax is at least 350%. Also, in assay [2], the “Trp EC1.5 (μM)” value is on record as “B (EC1.5 1-25 μM)” and the Emax is at least 350%.
For the molecule `Cc1cc(NC(=O)c2cnc3ccc(-c4ccccc4C(F)(F)F)nn23)ccn1` [Compound 102], in assay [1], the “TAMRA EC1.5 (μM)” value is “A (EC1.5<1 μM)” and the Emax is at least 350%. Moreover, in assay [2], the “Trp EC1.5 (μM)” value is “B (EC1.5 1-25 μM)” and the Emax is at least 350%.
For the molecule `CN(C)c1cccc(NC(=O)c2cnc3ccc(-c4ccccc4C(F)(F)F)nn23)n1` [Compound 104], in assay [1], the “TAMRA EC1.5 (μM)” value was “A (EC1.5<1 μM)” and the Emax was at least 350%. In assay [2], the “Trp EC1.5 (μM)” value is on record as “B (EC1.5 1-25 μM)” and the Emax was under 350%.
In the case of `O=C(Nc1cncc(F)c1)c1cnc2ccc(-c3ccccc3C(F)(F)F)nn12` [Compound 107], in assay [1], the “TAMRA EC1.5 (μM)” value was “B (EC1.5 1-25 μM)” and the Emax is at least 350%. Also, in assay [2], the “Trp EC1.5 (μM)” value is listed as “B (EC1.5 1-25 μM)” and the Emax was under 350%.
Regarding `O=C(Nc1ccc(F)cn1)c1cnc2ccc(-c3ccccc3C(F)(F)F)nn12` [Compound 110], in assay [1], the “TAMRA EC1.5 (μM)” value is recorded as “A (EC1.5<1 μM)” and the Emax was at least 350%. In assay [2], the “Trp EC1.5 (μM)” value is listed as “B (EC1.5 1-25 μM)” and the Emax was under 350%.
Turning to `Cn1ccc(NC(=O)c2cnc3ccc(-c4ccccc4C(F)(F)F)nn23)n1` [Compound 112], in assay [1], the “TAMRA EC1.5 (μM)” value is “B (EC1.5 1-25 μM)” and the Emax is at least 350%. In assay [2], the “Trp EC1.5 (μM)” value is listed as “B (EC1.5 1-25 μM)” and the Emax was under 350%.
For `Cc1ncccc1NC(=O)c1cnc2ccc(-c3ccccc3C(F)(F)F)nn12` [Compound 113], in assay [1], the “TAMRA EC1.5 (μM)” value is “B (EC1.5 1-25 μM)” and the Emax is under 350%. Besides, in assay [2], the “Trp EC1.5 (μM)” value is “B (EC1.5 1-25 μM)” and the Emax is under 350%.
Take `O=C(Nc1cccc(CN2CCOCC2)n1)c1cnc2ccc(-c3ccccc3Cl)nn12` [Compound 116]: in assay [1], the “TAMRA EC1.5 (μM)” value is “A (EC1.5<1 μM)” and the Emax is at least 350%. For the same molecule, in assay [2], the “Trp EC1.5 (μM)” value is given as “C (EC1.5>25 μM)” and the Emax was under 350%.
For `O=C(Nc1cnccn1)c1cnc2ccc(-c3ccccc3Cl)nn12` [Compound 119], in assay [1], the “TAMRA EC1.5 (μM)” value is given as “B (EC1.5 1-25 μM)” and the Emax was under 350%. Besides, in assay [2], the “Trp EC1.5 (μM)” value is on record as “C (EC1.5>25 μM)” and the Emax is under 350%.
Turning to `O=C(Nc1cnc2ccc(-c3ccccc3C(F)(F)F)nn12)c1cncc(N2CCOCC2)n1` [Compound 120], in assay [1], the “TAMRA EC1.5 (μM)” value is reported as “A (EC1.5<1 μM)” and the Emax was at least 350%. Besides, in assay [2], the “Trp EC1.5 (μM)” value was “B (EC1.5 1-25 μM)” and the Emax is at least 350%.
On to `O=C(Nc1cnc2ccc(-c3ccccc3C(F)(F)F)nn12)c1nccs1` [Compound 122], for which, in assay [1], the “TAMRA EC1.5 (μM)” value is reported as “A (EC1.5<1 μM)” and the Emax was at least 350%. In assay [2], the “Trp EC1.5 (μM)” value is given as “B (EC1.5 1-25 μM)” and the Emax is under 350%.
With `Cc1cc(C)c(NC(=O)c2cnc3ccc(-c4ccccc4C(F)(F)F)nn23)cn1` [Compound 125], in assay [1], the “TAMRA EC1.5 (μM)” value is reported as “B (EC1.5 1-25 μM)” and the Emax was under 350%. In addition, in assay [2], the “Trp EC1.5 (μM)” value is reported as “B (EC1.5 1-25 μM)” and the Emax was under 350%.
As to `O=C(Nc1cccc(N2CCOCC2)n1)c1cnc2ccc(-c3ccc(F)c(F)c3F)nn12` [Compound 126], in assay [1], the “TAMRA EC1.5 (μM)” value is reported as “A (EC1.5<1 μM)” and the Emax was under 350%. Also, in assay [2], the “Trp EC1.5 (μM)” value is listed as “B (EC1.5 1-25 μM)” and the Emax is under 350%.
With `O=C(Nc1ccncc1)c1cnc2ccc(-c3ccc(F)c(F)c3F)nn12` [Compound 128], in assay [1], the “TAMRA EC1.5 (μM)” value is recorded as “C (EC1.5>25 μM)” and the Emax is under 350%. In assay [2], the “Trp EC1.5 (μM)” value is on record as “C (EC1.5>25 μM)” and the Emax was under 350%.
With `O=C(Nc1cccnc1)c1cnc2ccc(-c3ccc(F)c(F)c3F)nn12` [Compound 131], in assay [1], the “TAMRA EC1.5 (μM)” value is listed as “C (EC1.5>25 μM)” and the Emax is under 350%. Besides, in assay [2], the “Trp EC1.5 (μM)” value is listed as “C (EC1.5>25 μM)” and the Emax is under 350%.
Take `O=C(Nc1cccc(N2CCOCC2)n1)c1cnc2ccc(-c3ccccc3F)nn12` [Compound 133]: in assay [1], the “TAMRA EC1.5 (μM)” value is on record as “A (EC1.5<1 μM)” and the Emax is at least 350%. Moreover, in assay [2], the “Trp EC1.5 (μM)” value was “A (EC1.5<1 μM)” and the Emax is under 350%.
Regarding `O=C(Nc1ccnc(N2CCC2)c1)c1cnc2ccc(-c3ccccc3F)nn12` [Compound 134], in assay [1], the “TAMRA EC1.5 (μM)” value is recorded as “A (EC1.5<1 μM)” and the Emax is at least 350%. In assay [2], the “Trp EC1.5 (μM)” value is “C (EC1.5>25 μM)” and the Emax is under 350%.
For the molecule `O=C(Nc1cccc(CN2CCOCC2)n1)c1cnc2ccc(-c3cccc(Cl)c3F)nn12` [Compound 140], in assay [1], the “TAMRA EC1.5 (μM)” value is recorded as “A (EC1.5<1 μM)” and the Emax is at least 350%. Moreover, in assay [2], the “Trp EC1.5 (μM)” value was “B (EC1.5 1-25 μM)” and the Emax is under 350%.
Turning to `O=C(Nc1ccncc1)c1cnc2ccc(-c3cccc(Cl)c3F)nn12` [Compound 141], in assay [1], the “TAMRA EC1.5 (μM)” value is reported as “C (EC1.5>25 μM)” and the Emax is under 350%. For the same molecule, in assay [2], the “Trp EC1.5 (μM)” value is recorded as “C (EC1.5>25 μM)” and the Emax is under 350%.
`O=C(Nc1cccnc1)c1cnc2ccc(-c3cccc(Cl)c3F)nn12` [Compound 143]: in assay [1], the “TAMRA EC1.5 (μM)” value is “C (EC1.5>25 μM)” and the Emax was under 350%. In assay [2], the “Trp EC1.5 (μM)” value was “A (EC1.5<1 μM)” and the Emax is under 350%.
